Experimental data from PubChem BioAssay (NCI).
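These data come from cells grown in 96-well plates and exposed to compound for 48 hours at five concentrations. At the GI50, growth is halved. TGI is the concentration that stops growth completely.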

Key:
Assay in all cases: NCI-60 cell line screen, 48 h
OVCAR-4 ovarian = test system: OVCAR-4 ovarian
NCI-H522 lung = test system: NCI-H522 lung
SK-MEL-5 melanoma = test system: SK-MEL-5 melanoma
NCI-H23 lung = test system: NCI-H23 lung
NCI-H460 lung = test system: NCI-H460 lung
SN12C renal = test system: SN12C renal
HS 578T breast = test system: HS 578T breast
SK-MEL-2 melanoma = test system: SK-MEL-2 melanoma
ACHN renal = test system: ACHN renal
MDA-MB-435 = test system: MDA-MB-435
DU-145 prostate = test system: DU-145 prostate
A549 NSCLC = test system: A549 NSCLC
RPMI-8226 leukemia = test system: RPMI-8226 leukemia
UACC-257 melanoma = test system: UACC-257 melanoma
OVCAR-5 ovarian = test system: OVCAR-5 ovarian
MOLT-4 leukemia = test system: MOLT-4 leukemia
K-562 leukemia = test system: K-562 leukemia
HOP-62 NSCLC = test system: HOP-62 NSCLC
MDA-MB-468 breast = test system: MDA-MB-468 breast
TK-10 renal = test system: TK-10 renal
NCI-H226 lung = test system: NCI-H226 lung
SNB-19 CNS = test system: SNB-19 CNS
MCF7 breast = test system: MCF7 breast
MALME-3M melanoma = test system: MALME-3M melanoma
HT29 colon = test system: HT29 colon
RXF 393 renal = test system: RXF 393 renal
SK-OV-3 ovarian = test system: SK-OV-3 ovarian
IGROV1 ovarian = test system: IGROV1 ovarian

O=C(N/N=C/c1ccc(-c2cccc([N+](=O)[O-])c2)o1)c1[nH]c2ccc(Br)cc2c1-c1ccccc1
GI50 (OVCAR-4 ovarian): > 100 µM
TGI (OVCAR-4 ovarian): > 100 µM
GI50 (NCI-H522 lung): 1.73 µM
TGI (NCI-H522 lung): 3.98 µM
GI50 (SK-MEL-5 melanoma): 2.22 µM
TGI (SK-MEL-5 melanoma): 5.34 µM
GI50 (NCI-H23 lung): 4.87 µM
TGI (NCI-H23 lung): > 100 µM
GI50 (NCI-H460 lung): 3.49 µM
TGI (NCI-H460 lung): > 100 µM
GI50 (SN12C renal): 3.99 µM
TGI (SN12C renal): > 100 µM
GI50 (HS 578T breast): 4.26 µM
TGI (HS 578T breast): > 100 µM
GI50 (SK-MEL-2 melanoma): 2.68 µM
TGI (SK-MEL-2 melanoma): 8.93 µM
GI50 (ACHN renal): 4.76 µM
TGI (ACHN renal): > 100 µM
GI50 (MDA-MB-435): 3.2 µM
TGI (MDA-MB-435): > 100 µM
GI50 (DU-145 prostate): 4.2 µM
TGI (DU-145 prostate): > 100 µM
GI50 (A549 NSCLC): 3.66 µM
TGI (A549 NSCLC): > 100 µM
GI50 (RPMI-8226 leukemia): 3.31 µM
TGI (RPMI-8226 leukemia): > 100 µM
GI50 (UACC-257 melanoma): 5.79 µM
TGI (UACC-257 melanoma): > 100 µM
GI50 (OVCAR-5 ovarian): 3.84 µM
TGI (OVCAR-5 ovarian): > 100 µM
GI50 (MOLT-4 leukemia): 3.45 µM
TGI (MOLT-4 leukemia): > 100 µM
GI50 (K-562 leukemia): 3.28 µM
TGI (K-562 leukemia): > 100 µM
GI50 (HOP-62 NSCLC): 3.49 µM
TGI (HOP-62 NSCLC): > 100 µM
GI50 (MDA-MB-468 breast): 2.28 µM
TGI (MDA-MB-468 breast): 6 µM
GI50 (TK-10 renal): > 100 µM
TGI (TK-10 renal): > 100 µM
GI50 (NCI-H226 lung): 23.5 µM
TGI (NCI-H226 lung): > 100 µM
GI50 (SNB-19 CNS): 3.48 µM
TGI (SNB-19 CNS): > 100 µM
GI50 (MCF7 breast): 3.56 µM
TGI (MCF7 breast): > 100 µM
GI50 (MALME-3M melanoma): 3.77 µM
TGI (MALME-3M melanoma): > 100 µM
GI50 (HT29 colon): 2.58 µM
TGI (HT29 colon): 6.97 µM
GI50 (RXF 393 renal): 2.65 µM
TGI (RXF 393 renal): 7.45 µM
GI50 (SK-OV-3 ovarian): 3.61 µM
TGI (SK-OV-3 ovarian): > 100 µM
GI50 (IGROV1 ovarian): 4.33 µM
